Assay [1] addresses T1, Protein mono-ADP-ribosyltransferase PARP8 (Homo sapiens) (UniProt Q8N3A8).
T1 sequence (whole entry): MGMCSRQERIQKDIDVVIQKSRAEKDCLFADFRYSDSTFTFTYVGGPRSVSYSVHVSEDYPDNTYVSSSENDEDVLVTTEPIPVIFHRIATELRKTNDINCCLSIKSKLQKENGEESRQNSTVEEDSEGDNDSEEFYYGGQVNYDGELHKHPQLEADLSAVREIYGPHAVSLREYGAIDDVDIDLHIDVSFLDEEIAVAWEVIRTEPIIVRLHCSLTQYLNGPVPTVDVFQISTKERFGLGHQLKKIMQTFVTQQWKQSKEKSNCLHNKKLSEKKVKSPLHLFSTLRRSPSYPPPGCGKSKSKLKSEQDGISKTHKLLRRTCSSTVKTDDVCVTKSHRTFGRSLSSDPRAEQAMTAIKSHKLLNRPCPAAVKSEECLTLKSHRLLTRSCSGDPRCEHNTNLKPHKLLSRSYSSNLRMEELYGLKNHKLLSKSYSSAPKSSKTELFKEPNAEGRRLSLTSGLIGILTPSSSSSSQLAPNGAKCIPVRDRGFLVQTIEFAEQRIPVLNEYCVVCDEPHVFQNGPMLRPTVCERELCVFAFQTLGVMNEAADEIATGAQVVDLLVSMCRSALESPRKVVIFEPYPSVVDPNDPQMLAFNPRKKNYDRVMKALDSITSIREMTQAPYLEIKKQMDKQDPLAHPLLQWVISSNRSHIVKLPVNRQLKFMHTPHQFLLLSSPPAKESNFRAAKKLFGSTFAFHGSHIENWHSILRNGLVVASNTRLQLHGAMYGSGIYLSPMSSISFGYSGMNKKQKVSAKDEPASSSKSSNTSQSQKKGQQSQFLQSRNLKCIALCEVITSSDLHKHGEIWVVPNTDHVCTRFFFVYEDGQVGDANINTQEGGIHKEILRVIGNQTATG
In words: Inhibition of PARP8 (unknown origin).

Assay [2] deals with T2, Protein mono-ADP-ribosyltransferase PARP3 (Homo sapiens) (UniProt Q9Y6F1).
T2 sequence (whole entry): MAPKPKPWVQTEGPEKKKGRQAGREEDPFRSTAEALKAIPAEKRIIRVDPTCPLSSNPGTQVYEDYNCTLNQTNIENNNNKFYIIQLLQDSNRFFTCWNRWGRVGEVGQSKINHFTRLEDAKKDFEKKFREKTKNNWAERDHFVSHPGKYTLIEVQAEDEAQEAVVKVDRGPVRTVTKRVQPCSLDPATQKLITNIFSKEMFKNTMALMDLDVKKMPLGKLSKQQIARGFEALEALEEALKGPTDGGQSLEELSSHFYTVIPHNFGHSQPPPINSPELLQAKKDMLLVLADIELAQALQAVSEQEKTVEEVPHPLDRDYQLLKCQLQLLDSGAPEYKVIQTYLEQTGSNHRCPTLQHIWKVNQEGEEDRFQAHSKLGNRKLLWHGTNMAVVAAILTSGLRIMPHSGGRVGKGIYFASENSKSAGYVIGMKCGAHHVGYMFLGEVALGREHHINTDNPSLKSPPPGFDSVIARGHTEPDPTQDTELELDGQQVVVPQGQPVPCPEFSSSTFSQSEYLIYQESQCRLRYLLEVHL
Description: Inhibition of PARP3 (unknown origin).

The source made the active and inactive calls. The rule behind the calls is not given here.

Inhibition data for 2 compounds are collected here from ChEMBL document CHEMBL5331077, “Combining pharmacophore models derived from DNA-encoded chemical libraries with structure-based exploration to predict Tankyrase 1 inhibitors” (Eur J Med Chem, 2023).

Take `Cc1cc(OCC(=O)NCCNC(=O)c2cccc(COc3ccccc3C(N)=O)c2)c2c3c(c(=O)oc2c1)CCC3`: the inhibition result in assay [1] and in assay [2] was “inactive” throughout.
`CNC(=O)[C@H](CNC(=O)CCn1c(=O)[nH]c(=O)c2ccccc21)NC(=O)c1cnc2ccccc2c1`: the inhibition entry in assay [1] and in assay [2] was “inactive” each time.
